Experimental data: the supplement of paper PMC10307832

Legend:
Assay in all cases: relative viability (nuclei count vs DMSO), 5 days (fraction); higher = more cells survive
Zosuquidar + Pemetrexed = compound: O[C@@H](COc1cccc2ncccc12)CN1CCN([C@@H]2c3ccccc3[C@@H]3[C@H](c4ccccc42)C3(F)F)CC1 [Zosuquidar] + Nc1nc2[nH]cc(CCc3ccc(C(=O)N[C@@H](CCC(=O)O)C(=O)O)cc3)c2c(=O)[nH]1 [Pemetrexed] (partner 0.2 µM)
Summary of the method: (§1)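 Values are medians from duplicate plates. Each reflects relative viability, defined as the nuclei count of treated wells over that of vehicle wells. Lung cancer cell lines in 1536-well plates were pin-tool dosed one day after seeding with one drug alone or with a fixed anchor-drug dose plus five library-drug doses (not always all listed) in √10 steps, then fixed, stained and imaged at 4× after 5 days.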

[1] = compound: COc1cc2nccc(Oc3ccc(NC(=O)C4(C(=O)Nc5ccc(F)cc5)CC4)cc3)c2cc1OC [Cabozantinib] + CC(=O)c1c(C)c2cnc(Nc3ccc(N4CCNCC4)cn3)nc2n(C2CCCC2)c1=O [Palbociclib] (partner 0.5 µM)
Summary of the method: as §1

[2] = compound: COc1cc2nccc(Oc3ccc(NC(=O)C4(C(=O)Nc5ccc(F)cc5)CC4)cc3)c2cc1OC [Cabozantinib] + CC1(C)CCC(c2ccc(Cl)cc2)=C(CN2CCN(c3ccc(C(=O)NS(=O)(=O)c4ccc(N[C@H](CCN5CCOCC5)CSc5ccccc5)c(S(=O)(=O)C(F)(F)F)c4)cc3)CC2)C1 [Navitoclax] (partner 0.5 µM)
Summary of the method: as §1

Kobe2602 + Navitoclax = compound: C1=CC(=CC=C1NC(=S)NNC2=C(C=C(C=C2[N+](=O)[O-])C(F)(F)F)[N+](=O)[O-])F [Kobe2602] + CC1(C)CCC(c2ccc(Cl)cc2)=C(CN2CCN(c3ccc(C(=O)NS(=O)(=O)c4ccc(N[C@H](CCN5CCOCC5)CSc5ccccc5)c(S(=O)(=O)C(F)(F)F)c4)cc3)CC2)C1 [Navitoclax] (partner 0.5 µM)
Summary of the method: as §1

Cell Line | relative viability (Zosuquidar + Pemetrexed; first compound 0.01 µM) | relative viability (Zosuquidar + Pemetrexed; first compound 0.03162 µM) | relative viability (Zosuquidar + Pemetrexed; first compound 0.3162 µM) | relative viability (Zosuquidar + Pemetrexed; first compound 1 µM) | relative viability ([1]; first compound 0.02 µM) | relative viability ([1]; first compound 0.06325 µM) | relative viability ([1]; first compound 0.2 µM) | relative viability ([1]; first compound 0.6325 µM) | relative viability ([1]; first compound 2 µM) | relative viability ([2]; first compound 0.06325 µM) | relative viability ([2]; first compound 0.2 µM) | relative viability ([2]; first compound 0.6325 µM) | relative viability ([2]; first compound 2 µM) | relative viability (Kobe2602 + Navitoclax; first compound 0.2 µM) | relative viability (Kobe2602 + Navitoclax; first compound 0.6325 µM) | relative viability (Kobe2602 + Navitoclax; first compound 2 µM) | relative viability (Kobe2602 + Navitoclax; first compound 6.325 µM) | relative viability (Kobe2602 + Navitoclax; first compound 20 µM) | relative viability (Zosuquidar + Pemetrexed; first compound 0.1 µM) | relative viability ([2]; first compound 0.02 µM)
LCLC-97TM1 | 0.192 | 0.191 | 0.158 | 0.183 | 0.189 | 0.228 | 0.221 | 0.253 | 0.222 | 0.5 | 0.618 | 0.484 | 0.589 | 0.253 | 0.462 | 0.531 | 0.282 | 0.317 |  | 
LU99A | 0.168 | 0.175 | 0.165 | 0.171 | 0.381 | 0.419 | 0.447 | 0.39 | 0.362 | 0.9 | 0.762 | 0.686 | 0.783 | 0.817 | 0.87 | 0.811 | 0.732 | 0.781 | 0.155 | 0.774
NCI-H1299 |  |  |  |  |  |  |  |  |  | 1.04 | 1.08 | 1.06 | 1.09 | 1.07 | 1.04 | 1.06 | 1.08 | 1.02 |  | 1.03
NCI-H1355 | 1.01 | 1 | 1.11 | 1.03 | 0.423 | 0.448 | 0.389 | 0.371 | 0.379 | 0.974 | 0.967 | 0.893 | 0.861 | 0.887 | 0.94 | 0.945 | 0.901 | 0.902 | 0.916 | 0.96
HARA | 0.259 | 0.234 | 0.31 | 0.277 | 0.323 | 0.29 | 0.218 | 0.344 | 0.263 | 1.16 | 1.12 | 1.19 | 1.17 | 1.22 | 1.19 | 1.16 | 1.06 | 1.11 | 0.247 | 1.17
LXF-289 | 0.892 | 0.905 | 0.895 | 0.908 | 0.582 | 0.625 | 0.532 | 0.618 | 0.559 | 0.934 | 0.926 | 0.927 | 0.933 | 0.95 | 0.959 | 0.873 | 0.941 | 0.923 | 0.908 | 0.991
NCI-H1703 |  |  |  |  |  |  |  |  |  | 0.48 | 0.265 | 0.258 | 0.206 | 1.44 | 1.24 | 1.12 | 0.893 | 1.06 |  | 0.618
A549 |  |  |  |  |  |  |  |  |  | 1.24 | 1.21 | 1.27 | 1.08 | 1.26 | 1.21 | 1.22 | 1.11 | 1.17 |  | 1.26
Calu-6 |  |  |  |  |  |  |  |  |  | 0.912 | 0.801 | 0.739 | 0.773 | 0.818 | 0.875 | 0.866 | 0.826 | 0.744 |  | 0.76
NCI-H1648 | 1.57 | 0.99 | 0.717 | 0.627 | 0.27 | 0.259 |  | 0.281 | 0.299 |  |  |  |  |  |  |  |  |  | 0.568 | 
NCI-H358 | 0.189 | 0.173 | 0.167 | 0.154 | 0.112 | 0.138 | 0.163 | 0.135 | 0.135 |  |  |  |  |  |  |  |  |  | 0.173 | 
NCI-H2342 | 0.682 | 0.785 | 0.899 | 0.818 | 0.519 | 0.466 | 0.493 | 0.501 | 0.495 |  |  |  |  |  |  |  |  |  | 0.649 | 
ABC-1 |  |  |  |  |  | 0.734 | 0.707 | 0.855 | 0.654 |  |  |  |  |  |  |  |  |  |  | 
NCI-H727 |  |  |  |  | 0.648 | 0.689 | 0.577 | 0.62 | 0.616 | 0.408 | 0.463 | 0.441 | 0.507 | 0.392 | 0.431 | 0.356 | 0.389 | 0.456 |  | 0.355
NCI-H1563 | 0.623 | 0.786 | 0.729 | 0.743 |  |  |  |  |  |  |  |  |  |  |  |  |  |  | 0.679 | 
LCLC-103H | 0.495 | 0.489 | 0.46 | 0.46 | 0.492 | 0.463 | 0.464 | 0.434 | 0.435 |  |  |  |  |  |  |  |  |  | 0.453 | 
NCI-H661 | 0.914 | 0.902 | 0.928 | 0.851 | 0.385 | 0.43 | 0.425 | 0.422 | 0.463 |  |  |  |  |  |  |  |  |  | 0.846 | 
NCI-H522 | 0.958 | 0.897 | 0.843 | 1.17 | 0.885 | 0.966 | 1.06 | 1.12 | 0.905 |  |  |  |  |  |  |  |  |  | 0.968 | 
SW 900 | 0.497 | 0.485 | 0.514 | 0.498 | 0.585 | 0.601 | 0.436 | 0.55 | 0.492 |  |  |  |  |  |  |  |  |  |  | 
EBC-1 |  |  |  |  |  |  |  |  |  | 0.302 | 0.152 | 0.125 | 0.0913 | 0.373 | 0.488 | 0.436 | 0.452 | 0.483 |  | 0.444
IA-LM |  |  |  |  |  |  |  |  |  | 0.912 | 1.02 | 1.01 | 0.965 |  | 0.741 | 0.737 | 0.639 | 0.669 |  | 1.1
NCI-H650 | 0.764 | 0.757 | 1.18 | 0.921 | 0.343 | 0.325 | 0.339 | 0.317 | 0.296 |  |  |  |  |  |  |  |  |  | 0.834 | 
NCI-H596 | 0.456 | 0.482 | 0.507 | 0.544 |  |  |  |  |  | 1.2 | 0.861 | 0.829 | 0.729 | 0.908 | 1.05 | 0.949 | 0.962 | 0.992 | 0.51 | 1.22
